Experiments:
mu opioid receptor = target: T1, mu opioid receptor (Rattus norvegicus, UniProt P33535); experiment: Rat Brain mu Opioid Receptor Binding Assay; conditions: rat forebrain membranes, ~0.8 nM [3H]DAMGO, 25° C., 2.5 h; read-out: μ-opioid binding (Ki)
T1 construct: from tissue; host or cells: rat forebrain homogenate (Wistar rat)
Method: (§1) Male, Wistar rats (150–250 g, VAF, Charles River, Kingston, N.Y.) are killed by cervical dislocation, and their brains removed and placed immediately in ice cold Tris HCl buffer (50 mM, pH 7.4). The forebrains are separated from the remainder of the brain by a coronal transection, beginning dorsally at the colliculi and passing ventrally through the midbrain-pontine junction. After dissection, the forebrains are homogenized in Tris buffer in a Teflon®-glass homogenizer. The homogenize is diluted to a concentration of 1 g of forebrain tissue per 80 mL Tris and centrifuged at 39,000×g for 10 min. The pellet is resuspended in the same volume of Tris buffer containing 5 mM MgCl2 with several brief pulses from a Polytron homogenizer. This particulate preparation is used for the mu-opioid binding assays. Following incubation with the mu selective peptide ligand ˜0.8 nM [^3H]DAMGO at 25° C. for 2.5 h in a 96-well plate with total 1 ml, the plate contents are filtered through Wallac filtermat B sheets on a Tomtec 96-well harvester. The filters are rinsed three times with 2 mL of 10 mM HEPES (pH7.4), and dried in a microwave oven 1:45 min twice. To each sample area 2×40 μl of Betaplate Scint scintillation fluid (LKB) is added and analyzed on a LKB (Wallac) 1205 BetaPlate liquid scintillation counter.
(§2) The data are used to calculate either the % inhibition compared to control binding (when only a single concentration of test compound is evaluated) or a Ki value (when a range of concentrations is tested). % inhibition is calculated as: [(total dpm-test compound dpm dpm)/(total dpm-nonspecific dpm)]*100. Kd and Ki values were calculated using GraphPad PRISM data analysis program.

delta opioid receptor = target: T2, delta opioid receptor (Rattus norvegicus, UniProt P33533); experiment: Rat Brain Delta Opioid Receptor Binding Assay; conditions: rat forebrain membranes, ~4 nM [3H]DPDPE, 25° C., 2.5 h; read-out: δ-opioid binding (Ki)
T2 construct: from tissue; host or cells: rat forebrain homogenate (Wistar rat)
T2 sequence (P33533 whole entry): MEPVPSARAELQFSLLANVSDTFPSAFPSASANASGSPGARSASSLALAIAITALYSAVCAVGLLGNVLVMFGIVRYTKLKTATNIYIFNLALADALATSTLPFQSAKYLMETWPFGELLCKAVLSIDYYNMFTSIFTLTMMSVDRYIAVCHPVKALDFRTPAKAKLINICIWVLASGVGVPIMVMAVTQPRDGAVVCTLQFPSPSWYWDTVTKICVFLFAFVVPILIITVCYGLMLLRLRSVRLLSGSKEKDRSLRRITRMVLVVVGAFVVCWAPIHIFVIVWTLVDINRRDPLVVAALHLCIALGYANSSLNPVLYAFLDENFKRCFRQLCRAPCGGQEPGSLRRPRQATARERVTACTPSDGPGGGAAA
Method: as §1, with “delta opioid” for “mu-opioid”, “delta” for “mu”, “˜4” for “˜0.8”, “[^3H]DPDPE” for “[^3H]DAMGO”, “total volume of” for “total”
as §2

T1 sequence (P33535 whole entry): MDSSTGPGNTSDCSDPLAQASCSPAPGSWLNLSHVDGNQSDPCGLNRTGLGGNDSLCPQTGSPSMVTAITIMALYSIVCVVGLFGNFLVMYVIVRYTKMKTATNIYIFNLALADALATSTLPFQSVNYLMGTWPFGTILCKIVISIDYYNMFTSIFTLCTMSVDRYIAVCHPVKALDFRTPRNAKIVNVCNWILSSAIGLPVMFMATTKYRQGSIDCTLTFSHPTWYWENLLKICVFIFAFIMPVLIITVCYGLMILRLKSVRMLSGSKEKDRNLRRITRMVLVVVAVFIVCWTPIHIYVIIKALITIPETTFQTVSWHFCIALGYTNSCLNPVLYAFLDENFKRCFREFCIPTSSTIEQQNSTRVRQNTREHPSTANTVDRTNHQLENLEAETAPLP

SMILES	Ki (mu opioid receptor) [nM]	Ki (delta opioid receptor) [nM]
N[C@@H](Cc1ccc(Cl)cc1)C(=O)N1Cc2ccccc2C[C@H]1c1nc(-c2ccccc2)c[nH]1 [Cmpd 144]	5260	1130
CN[C@@H](Cc1c(C)cc(O)cc1C)C(=O)N1CCCC[C@H]1c1nc(-c2ccccc2)c[nH]1 [Cmpd 28]	0.3	21.5
O=C(C(Cc1ccc(O)cc1)NCc1ccccc1)N1Cc2ccccc2CC1c1nc(-c2ccccc2)c[nH]1 (stereo not shown) [Cmpd 135]	10000	185
CC(N)(Cc1ccc(O)cc1)C(=O)N1Cc2ccccc2CC1c1nc(-c2ccccc2)c[nH]1 (stereo not shown) [Cmpd 121]	38	1.32
C[C@](N)(Cc1ccc(OCc2ccccc2)cc1)C(=O)N1Cc2ccccc2C[C@H]1c1nc(-c2ccccc2)c[nH]1 [Cmpd 122]	2520	346
N[C@@H](Cc1ccc(S(N)(=O)=O)cc1)C(=O)N1Cc2ccccc2C[C@H]1c1nc(-c2ccccc2)c[nH]1 [Cmpd 104]	592	174
N[C@@H](Cc1cc(F)c(O)c(F)c1)C(=O)N1Cc2ccccc2C[C@H]1c1nc(-c2ccccc2)c[nH]1 [Cmpd 109]	167	12.6
N[C@@H](Cc1ccc(C(=O)Nc2ccccc2)cc1)C(=O)N1Cc2ccccc2C[C@H]1c1nc(-c2ccccc2)c[nH]1 [Cmpd 111]	293	103
CC(=O)c1ccc(C[C@H](N)C(=O)N2CCCC[C@H]2c2nc(-c3ccccc3)c[nH]2)cc1 [Cmpd 10]	23.6	933
Cc1[nH]c([C@@H]2Cc3ccccc3CN2C(=O)[C@@H](N)Cc2ccc(F)cc2)nc1-c1ccccc1 [Cmpd 143]	12800	687
Nc1cc(C[C@H](N)C(=O)N2CCCC[C@H]2c2nc(-c3ccccc3)c[nH]2)ccc1O [Cmpd 16]	115	5330
CCN[C@@H](Cc1ccc(O)cc1)C(=O)N1Cc2ccccc2C[C@H]1c1nc(-c2ccccc2)c[nH]1 [Cmpd 137]	368	3.89
CNC(Cc1c(C)cc(OC)cc1C)C(=O)N1Cc2ccccc2CC1c1nc(-c2ccccc2)c[nH]1 (stereo not shown) [Cmpd 146]	817	668
CC(N)(Cc1ccc(OCc2ccccc2)cc1)C(=O)N1CCCCC1c1nc(-c2ccccc2)c[nH]1 (stereo not shown) [Cmpd 26]	87	628
CCN[C@@H](Cc1ccc(O)cc1)C(=O)N1Cc2ccccc2C[C@@H]1c1nc(-c2ccccc2)c[nH]1 [Cmpd 136]	229	116
NC(=O)c1ccc(CC(N)C(=O)N2Cc3ccccc3CC2c2nc(-c3ccccc3)c[nH]2)cc1 (stereo not shown) [Cmpd 115]	23.2	1.3
Cc1[nH]c([C@@H]2Cc3ccccc3CN2C(=O)[C@@H](N)Cc2ccc(C(N)=O)cc2)nc1-c1ccccc1 [Cmpd 118]	23.1	0.73
CC(=O)c1ccc(C[C@H](N)C(=O)N2Cc3ccccc3C[C@H]2c2nc(-c3ccccc3)c[nH]2)cc1 [Cmpd 110]	413	30.4
Cc1[nH]c([C@@H]2Cc3ccccc3CN2C(=O)[C@@H](N)Cc2ccc(N)cc2)nc1-c1ccccc1 [Cmpd 142]	857	93
NC(=O)c1ccc(C[C@H](N)C(=O)N2CCCC[C@H]2c2nc(-c3ccccc3)c[nH]2)cc1 [Cmpd 15]	2.6	65.3
NC(Cc1ccc(C(=O)O)cc1)C(=O)N1Cc2ccccc2CC1c1nc(-c2ccccc2)c[nH]1 (stereo not shown) [Cmpd 106]	5780	5200
N[C@@H](Cc1cccc(O)c1)C(=O)N1CCCC[C@H]1c1nc(-c2ccccc2)c[nH]1 [Cmpd 22]	16	433
COc1ccc(C[C@H](N)C(=O)N2Cc3ccccc3C[C@H]2c2nc(-c3ccccc3)c(C)[nH]2)cc1 [Cmpd 156]	179	28
Cc1cc(O)cc(C)c1C[C@H](N)C(=O)N1CCCC[C@H]1c1nc(-c2ccccc2)c(C)[nH]1 [Cmpd 29]	0.09	0.51
Cc1cc(O)cc(C)c1C[C@H](N)C(=O)N1Cc2ccccc2C[C@H]1c1nc(-c2ccccc2)c(Cl)[nH]1 [Cmpd 133]	0.18	0.12
Cc1cc(O)cc(C)c1CC(N)C(=O)N1Cc2ccccc2CC1c1nc(-c2ccccc2)c[nH]1 (stereo not shown) [Cmpd 131]	0.3	0.09

Source: US7041681B2, “Compounds as opioid receptor modulators” (Janssen Pharmaceutica N.V., priority 2002, dated 2006)
